Experimental data from BigSolDB 2.1.

O=P(Oc1ccccc1)(Oc1ccccc1)N1CCN(P(=O)(Oc2ccccc2)Oc2ccccc2)CC1
solubility (mole fraction)
Conditions	in 1-methoxy-2-propanol	in 1-methoxy-2-propyl acetate	in 1-propoxy-2-propanol	in 2-(2-methoxypropoxy) propanol
293.15 K	0.000356	0.000351	0.000353	0.000974
298.15 K	0.000447	0.000443	0.000445	0.00117
303.15 K	0.000589	0.000517	0.000564	0.00139
308.15 K	0.000782	0.00063	0.000715	0.00167
313.15 K	0.00102	0.000762	0.000893	0.00199
318.15 K	0.00132	0.000945	0.00112	0.00236
323.15 K	0.00168	0.00115	0.00141	0.0029
328.15 K	0.00215	0.00141	0.00177	0.00344
333.15 K	0.00282	0.0017	0.00219	0.00408
338.15 K	0.00367	0.00204	0.00275	0.00474
343.15 K	0.00457	0.00248	0.00339	0.00562

O=P(NCc1cccc(CNP(=O)(Oc2ccccc2)Oc2ccccc2)c1)(Oc1ccccc1)Oc1ccccc1
solubility (mole fraction)
Conditions	in 1-methoxy-2-propanol	in 1-methoxy-2-propyl acetate	in 1-propoxy-2-propanol	in 2-(2-methoxypropoxy) propanol
293.15 K	0.000609	0.00319	0.000508	0.00267
298.15 K	0.000758	0.00373	0.000636	0.00331
303.15 K	0.000936	0.0043	0.000766	0.00401
308.15 K	0.00114	0.0049	0.000964	0.00487
313.15 K	0.00138	0.00547	0.00121	0.00584
318.15 K	0.00169	0.00635	0.00144	0.00714
323.15 K	0.00204	0.00708	0.00182	0.00829
328.15 K	0.00255	0.0079	0.00216	0.00995
333.15 K	0.00305	0.00891	0.00259	0.0116
338.15 K	0.00374	0.01	0.00316	0.0138
343.15 K	0.00432	0.0115	0.00374	0.0156
